In brackets after ≈: the same amount, converted by molar mass.
Legend:
[1] = molecular target: T1, 2-hydroxyacylsphingosine 1-beta-galactosyltransferase (Homo sapiens, UniProt Q16880); experiment: Inhibition of UGT8 in human OE19 cells assessed as redcution in SFT accumulation measured after 72 hrs by LC-MS/MS analysis; type: cell-based
T1 sequence (Q16880 whole entry): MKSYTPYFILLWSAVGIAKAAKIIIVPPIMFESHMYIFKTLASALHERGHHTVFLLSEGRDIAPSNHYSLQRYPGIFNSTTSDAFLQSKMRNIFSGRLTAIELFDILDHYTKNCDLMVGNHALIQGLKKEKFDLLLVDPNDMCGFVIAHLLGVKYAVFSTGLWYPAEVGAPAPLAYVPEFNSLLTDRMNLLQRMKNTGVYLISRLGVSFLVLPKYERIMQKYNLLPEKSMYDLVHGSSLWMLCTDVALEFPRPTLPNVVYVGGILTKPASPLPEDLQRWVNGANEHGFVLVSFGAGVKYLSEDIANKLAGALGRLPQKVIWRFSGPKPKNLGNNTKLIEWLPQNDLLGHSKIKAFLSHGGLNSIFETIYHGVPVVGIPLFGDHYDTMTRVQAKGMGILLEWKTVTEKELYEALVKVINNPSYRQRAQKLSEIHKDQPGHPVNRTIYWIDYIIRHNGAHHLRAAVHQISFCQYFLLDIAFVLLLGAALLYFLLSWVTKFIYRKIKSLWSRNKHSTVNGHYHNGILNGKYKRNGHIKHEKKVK

[2] = molecular target: T1, 2-hydroxyacylsphingosine 1-beta-galactosyltransferase; experiment: Inhibition of UGT8 in human OE19 cells assessed as redcution in GalCer accumulation measured after 72 hrs by LC-MS/MS analysis; type: cell-based
[3] = Intrinsic clearance in human liver microsomes; type: ADME, Microsome; details: read-out: CLH
[4] = Drug uptake in C57BL/6 mouse brain at 3 mg/kg, iv measured at 1 hr; type: ADME, organism-based; details: read-out: Drug uptake
[5] = Ratio of drug concentration in brain to plasma in C57BL/6 mouse measured at 5 mins; type: ADME, organism-based; details: read-out: BPR
[6] = Apparent permeability of the compound at pH 6.5 to 7.4 by PAMPA; type: ADME
[7] = Distribution coefficient, log D of the compound; type: physicochemical; details: octanol/water
[8] = Drug uptake in C57BL/6 mouse brain at 3 mg/kg, iv measured at 5 mins; type: ADME, organism-based; details: read-out: Drug uptake
[9] = Ratio of drug concentration in brain to plasma in C57BL/6 mouse measured at 1 hr; type: ADME, organism-based; details: read-out: BPR
[10] = Thermodynamic solubility of the compound […] at pH 7.4; type: physicochemical; details: read-out: Therm_solubility

SMILES	IC50 [1] [nM]	IC50 [2] [nM]	microsomal CLint [3] [µL/min/mg]	concentration at 1 h [4] [ng/mL]	Kp at 5 min [5]	Papp [6] [×10⁻⁶ cm/s]	logD [7]	concentration at 5 min [8] [ng/mL]	Kp at 1 h [9]	solubility thermodynamic [10] [µM]
CNC(=O)c1csc2c(C(F)(F)F)cc(N3CCN(CC(O)COC(C)(C)C)CC3)nc12 (stereo not drawn)	190	350	51	210	0.93	78	3.7	1700	0.35	
CNC(=O)c1csc2c(C(F)(F)F)cc(N3CCN(CCOC(C)C)CC3)nc12	330	200	96	1700	1.8	> 80	3.6	3000	1	
CNC(=O)c1csc2c(C(F)(F)F)cc(N3CCN(CC(=O)C(C)(C)C)CC3)nc12	610	1400	5	170	0.81	> 80	3.3	1100	0.54	
CNC(=O)c1csc2c(C(F)(F)F)cc(N3CCN(C(=O)COC(C)C)CC3)nc12	660	450	42	8	0.07	69	3.1	228	0.06	
CC(C)NC(=O)CN1CCN(c2cc(C(F)(F)F)c3scc(C(=O)N4CCC4)c3n2)CC1	640	320	27			66	2.7			
CNC(=O)c1csc2c(C(F)(F)F)cc(N3CCN(CC(=O)NC(C)C)CC3)nc12	67	90								
CCC(=O)c1csc2c(C(F)(F)F)cc(N3CCN(CC(=O)NC(C)C)CC3)nc12	97	120	36	270	0.83	> 80	3.6	1400	0.72	
CNC(=O)c1csc2c(C(F)(F)F)cc(N3CCC(OC(=O)NCCOC(F)(F)F)CC3)nc12	0.4	0.6		128	0.59		4.7	1640	0.24	< 0.5
CNC(=O)c1csc2c(C(F)(F)F)cc(N3CCC(OC(=O)N4CC(OC(F)(F)F)C4)CC3)nc12	1.7	2.9	41	316	1.67	> 80	5.13	3430	0.59	< 0.5

More lines, now with the values ahead:

IC50 [1] [nM]	IC50 [2] [nM]	microsomal CLint [3] [µL/min/mg]	concentration at 1 h [4] [ng/mL]	Kp at 5 min [5]	Papp [6] [×10⁻⁶ cm/s]	logD [7]	concentration at 5 min [8] [ng/mL]	Kp at 1 h [9]	solubility thermodynamic [10] [µM]	SMILES
48	43									CNC(=O)c1csc2c(C(F)(F)F)cc(N3CC(NC(=O)OCC4CC4)C3)nc12
0.9	1.1	70	143	0.76	> 80	4.29	1480	0.42	< 0.5	CNC(=O)c1csc2c(C(F)(F)F)cc(N3CCC(OC(=O)N[C@@H](C)C4CC4)CC3)nc12
18	37									CNC(=O)c1csc2c(C(F)(F)F)cc(N3CCC(NC(=O)OCC4CC4)CC3)nc12
1	3	59	132	0.91	> 80	4.2	2140	0.31		CNC(=O)c1csc2c(C(F)(F)F)cc(N3CCC(OC(=O)NCC4CC4)CC3)nc12
510									430 (≈ 215 µg/mL)	CNC(=O)c1csc2c(C(F)(F)F)cc(N3CCC(OC(=O)NCCN4CCCC4)CC3)nc12
2	2	46	302	1.88	> 80	4.35	2700	1.03		CNC(=O)c1csc2c(C(F)(F)F)cc(N3CCC(OC(=O)NC(C)C)CC3)nc12
200										CNC(=O)c1csc2c(C(F)(F)F)cc(N3CC(OC(=O)NCC4CC4)C3)nc12
980									420 (≈ 210 µg/mL)	CNC(=O)c1csc2c(C(F)(F)F)cc(N3CCC(OC(=O)N4CC(CN(C)C)C4)CC3)nc12
170	360	34		0.01	75	3.3	43			CNC(=O)c1csc2c(C(F)(F)F)cc(N3CCN(C(C)C(=O)NC4CC4)CC3)nc12 (stereo not drawn)
610										CNC(=O)c1csc2c(C(F)(F)F)cc(N3CCC(OC(=O)NCC4CC4)C3)nc12 (stereo not drawn)
0.9	0.4		192	1.45		4.56	2370	0.76	< 0.5	CC[C@H](C)NC(=O)OC1CCN(c2cc(C(F)(F)F)c3scc(C(=O)NC)c3n2)CC1
